Test results from PubChem BioAssay (NCI).
Where “and” joins values, the source holds several entries; their conditions need not be identical. Equal entries are not always repeated.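 Tested at 5 concentrations; 48 h exposure; 96-well plates; endpoints linearly interpolated, else capped at highest concentration. Here, GI50 denotes the concentration required for 50% inhibition of growth. At the TGI there is no net growth.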

How the values were obtained:
Assay in all cases: growth of human tumour cells (NCI), 48 h
ACHN renal = tested on: ACHN renal
BT-549 breast = tested on: BT-549 breast
DU-145 prostate = tested on: DU-145 prostate
HOP-92 NSCLC = tested on: HOP-92 NSCLC
HS 578T breast = tested on: HS 578T breast
LOX IMVI melanoma = tested on: LOX IMVI melanoma
NCI-H460 lung = tested on: NCI-H460 lung
OVCAR-4 ovarian = tested on: OVCAR-4 ovarian
RXF 393 renal = tested on: RXF 393 renal
UACC-62 melanoma = tested on: UACC-62 melanoma

SMILES | GI50 (ACHN renal) | TGI (ACHN renal) | GI50 (BT-549 breast) | TGI (BT-549 breast) | GI50 (DU-145 prostate) | TGI (DU-145 prostate) | GI50 (HOP-92 NSCLC) | GI50 (HS 578T breast) | GI50 (LOX IMVI melanoma) | TGI (LOX IMVI melanoma) | GI50 (NCI-H460 lung) | TGI (NCI-H460 lung) | GI50 (OVCAR-4 ovarian) | TGI (OVCAR-4 ovarian) | GI50 (RXF 393 renal) | TGI (RXF 393 renal) | GI50 (UACC-62 melanoma) | TGI (UACC-62 melanoma) | TGI (HOP-92 NSCLC) | TGI (HS 578T breast)
CC1=CC(=C(c2ccc(N)cc2)c2ccc(N)cc2)C=CC1=N | 3.9 µM and 5.01 µM | 18.1 µM and 44.9 µM and 24.3 µM | 679 nM and 1630 nM | 5.47 µM and 7.09 µM and 9.14 µM | 2070 nM and 3920 nM | 15.2 µM and > 40.3 µM and 14.2 µM | 949 nM and 3250 nM | 209 nM and 841 nM | 1380 nM and 3710 nM | 5.5 µM and 6.81 µM and 15 µM | 838 nM | 7.3 µM and 28.9 µM and 15.8 µM | 2.51 µM and 5.01 µM | 14.3 µM and > 55.2 µM and 71.6 µM | 3.17 µM and 5.67 µM | 12.2 µM and 34.5 µM and 22.9 µM | 1300 nM and 3090 nM | 5.53 µM and 18.3 µM and 16.1 µM | – | –
C/C(=C\CCc1ccoc1)CC/C=C(\C)CCCN1CCOCC1 | 8.24 µM | 24.1 µM | 1880 nM | 8.74 µM | 10300 nM | 22.3 µM | 1430 nM | 4070 nM | 6910 nM | 20.7 µM | 4790 nM | 17.8 µM | 3.21 µM | 14.3 µM | 9.17 µM | 23.2 µM | 5020 nM | 18.2 µM | 5.49 µM | 24.7 µM
C=CC(=O)NCc1cccc(Nc2ncc(Br)c(NCCCNC(=O)C3CCC3)n2)c1 | 1.66 µM and 0.712 µM | 12.5 µM and > 25 µM | 698 nM and 515 nM | 2.55 µM and 2.42 µM | 1250 nM and 1360 nM | 12.5 µM and 19.4 µM | 637 nM and 596 nM | 295 nM and 539 nM | 337 nM and 246 nM | 4.21 µM and 4.58 µM | 941 nM and 1270 nM | 4.7 µM and 5.55 µM | 1.67 µM and 1.2 µM | 6.07 µM and 12.8 µM | 0.166 µM and 0.123 µM | 0.844 µM and 0.468 µM | 2300 nM and 2900 nM | 5.23 µM and 7.37 µM | 5.21 µM and 16.4 µM | 1.53 µM and 1.86 µM
CN(C)CCNC(=O)C(C)(C)Oc1ccc(C(=O)c2ccc(Cl)cc2)cc1Cl | – | 23 µM | – | 23.9 µM | 2700 nM | 26.1 µM | – | – | 39.2 nM | 20.1 µM | – | 20.4 µM | – | 28 µM | 9.94 µM | 21.7 µM | 2810 nM | 4.29 µM | 18.1 µM | 23 µM
CC1(C)CCC2=C(O1)c1ccccc1C(=O)C2=O | 1.62 µM and 1.02 µM | 2.97 µM and 2.18 µM | 1510 nM | 2.92 µM and 1.74 µM | 1710 nM | 3.08 µM and 1.4 µM | 1720 nM | – | 330 nM and 309 nM | 1.31 µM and 0.934 µM | 1880 nM and 323 nM | 3.69 µM and 1.15 µM | 1.27 µM | 2.53 µM and 5.78 µM | 1.66 µM | 3.04 µM and 2.94 µM | 1790 nM | 3.3 µM and 0.957 µM | 3.33 µM and 10.4 µM | 6.32 µM and 0.643 µM
O=C1Nc2c(C(F)(F)F)cccc2[C@@]1(c1ccc(O)cc1)c1ccc(OC(F)(F)F)cc1 | 0.0178 µM | 0.0349 µM | < 10 nM | < 0.0132 µM | 30.3 nM | 0.0866 µM | 13.6 nM | < 10 nM | < 10 nM | < 0.0137 µM | 4190 nM | 19.7 µM | < 0.01 µM | < 0.01 µM | < 0.0107 µM | < 0.0232 µM | 21.3 nM | 0.071 µM | 0.0802 µM | < 0.01 µM
Cc1ccc(-c2cc3c(SCC(=O)Nc4cc(C(F)(F)F)ccc4Cl)nccn3n2)cc1 | 6.17 µM | > 100 µM | > 100000 nM | > 100 µM | > 100000 nM | > 100 µM | 14100 nM | 11700 nM | > 100000 nM | > 100 µM | 81600 nM | > 100 µM | 2.86 µM | > 100 µM | > 100 µM | > 100 µM | > 100000 nM | > 100 µM | > 100 µM | > 100 µM
COc1cc(-c2nc3ccccc3s2)ccc1NC(=O)COc1ccc(Cl)cc1 | 4.92 µM | > 100 µM | > 100000 nM | > 100 µM | 8280 nM | > 100 µM | 1660 nM | 3730 nM | 4690 nM | > 100 µM | 2990 nM | > 100 µM | 3.9 µM | 93.2 µM | 3.25 µM | 11.3 µM | 2740 nM | 13 µM | 4.99 µM | > 100 µM
C[C@]12CC[C@H](O)C[C@H]1CC[C@@H]1[C@@H]2CC[C@]2(C)[C@@H](C3=CC(=O)OC3)[C@@H](O)C[C@]12O | – | 1.82 µM | – | 7.32 µM | – | 2.71 µM | – | – | – | 12 µM | – | 1.72 µM | – | 3.16 µM | – | 3.51 µM | – | 6.82 µM | > 100 µM | > 21.8 µM
COC1CCN(C(=O)c2cc(Cc3n[nH]c(=O)c4ccccc34)ccc2F)CC1 | > 100 µM | > 100 µM | 28800 nM | > 100 µM | > 85700 nM | > 100 µM | 41500 nM | > 64500 nM | 58500 nM | > 100 µM | 25600 nM | > 100 µM | 36.7 µM | > 100 µM | 0.926 µM | 45.2 µM | 40000 nM | > 100 µM | > 100 µM | > 100 µM
Cc1ccc(C(SCC(N)C(=O)O)(c2ccc(C)cc2)c2ccc(C)cc2)cc1 (centres undefined) | 14.5 µM | > 68.3 µM | 3330 nM | 20.5 µM | 2450 nM | 5.59 µM | 2870 nM | 669 nM | 7160 nM | 20.2 µM | 2300 nM | 12 µM | 11.3 µM | > 48.3 µM | 1.46 µM | 14.8 µM | 1030 nM | 13.8 µM | 17.5 µM | 4.44 µM
CS(=O)(=O)Nc1ccc(-c2cc(-c3ccccc3)cc(C(N)=O)c2N)cc1 | > 25 µM | > 25 µM | > 25000 nM | > 25 µM | > 25000 nM | > 25 µM | 8900 nM | > 22400 nM | > 25000 nM | > 25 µM | > 25000 nM | > 25 µM | > 21.6 µM | > 25 µM | > 25 µM | > 25 µM | > 25000 nM | > 25 µM | > 25 µM | > 25 µM
NC(=O)c1ccc(NN=O)nc1 | – | > 100 µM | – | > 100 µM | – | > 100 µM | > 100000 nM | – | > 100000 nM | > 100 µM | – | > 100 µM | – | > 100 µM | > 100 µM | > 100 µM | – | > 100 µM | > 100 µM | > 100 µM
